Results as given in patent US8738114B2, “Systems and methods for measuring and modeling in vivo manganese ion transport in a subject” (Celtrast LLC, priority 2009, dated 2014).

Biological target: NCX (Mus musculus, UniProt P70414)
Assay: In vivo MEMRI Mn^2+ efflux study with NCX inhibition by SEA0400 (dose dependent groups), pharmacokinetic Models 1-3
Details: for Mn^2+ efflux rate following inhibition of the NCX, % of the initial, pre-SEA0400 administration, rate: Model 2 prediction, maximum inhibition
[1] = Model 1, 10 mg/kg SEA0400 i.p. 1 h post-190 nmoles/g BW MnCl2
[2] = Model 1, 20 mg/kg SEA0400 i.p. 1 h post-190 nmoles/g BW MnCl2
[3] = Model 1, 34 mg/kg SEA0400 i.p. 1 h post-190 nmoles/g BW MnCl2
[4] = Model 1, 50 mg/kg SEA0400 i.p. 1 h post-190 nmoles/g BW MnCl2
[5] = Model 2, 10 mg/kg SEA0400 i.p. 1 h post-190 nmoles/g BW MnCl2
[6] = Model 2, 20 mg/kg SEA0400 i.p. 1 h post-190 nmoles/g BW MnCl2
[7] = Model 2, 34 mg/kg SEA0400 i.p. 1 h post-190 nmoles/g BW MnCl2
[8] = Model 2, 50 mg/kg SEA0400 i.p. 1 h post-190 nmoles/g BW MnCl2
[9] = Model 3, 10 mg/kg SEA0400 i.p. 1 h post-190 nmoles/g BW MnCl2
[10] = Model 3, 20 mg/kg SEA0400 i.p. 1 h post-190 nmoles/g BW MnCl2
[11] = Model 3, 34 mg/kg SEA0400 i.p. 1 h post-190 nmoles/g BW MnCl2
[12] = Model 3, 50 mg/kg SEA0400 i.p. 1 h post-190 nmoles/g BW MnCl2

Experimental: The mice were randomized into three groups for efflux studies: 1) MnCl2 dose dependent (65±0.2, 119±2, 190±3 (Control) and 283±6 nmoles/g body weight MnCl2, n=40 mice) 2) SEA0400 dose dependent (190±1 nmoles/g BW MnCl2 infusion, followed 1 hour later with an i.p. injection of 10±0.2, 20±0.2, 34±0.8 and 50±0.2 mg/kg SEA0400, n=30) 3) Myocardial infarction (MI, 190±0.1 nmoles/g BW MnCl2, n=9)
In order to model the drug pharmacokinetics of SEA0400, and therefore the Mn^2+ transport mechanisms, an equation for the drug plasma concentration (Cp) was used (Eq. [2]), commonly applied to pharmaceutical modeling:
In Eq. [2] F is the fraction of drug absorbed, Vp is the apparent volume of distribution of the drug and D is the drug dose administered. The rate parameters, kel and kabs represent the drug elimination and absorption rates respectively.
The form for the Mn^2+ transfer rate parameter k21 was given by Eq. [3], under the assumption that k21 decreases linearly with increasing SEA0400 plasma concentration, Cp, as in Eq. [2]:
Parameter k21,initial is defined as the pre-pharmaceutical administration transfer parameter, k21(t<1 h). […] All the transfer rate and pharmaceutical parameters were therefore time-independent with the exception of k0 and k21 following SEA0400 administration.
The pharmaceutical absorption and elimination half-live (t1/2abs and t1/2el respectively) are given in Eq. [4] and Eq. [5].
Solutions to the ODEs were acquired using simultaneous 4th Order Runge-Kutta numerical methods in Matlab (Nantick, Mass.). Temporal in vivo cardiac Mn^2+ content data and ex vivo blood Mn^2+ content data were fit simultaneously to acquire least square fits for the first order rate parameters, kab. Least square fits of the pharmaceutical parameters, kabs and kel were also obtained using the SEA0400 groups, assuming that kab was unchanged from the control 190 nmoles/g group. […] The only constraint made by the least square fitting technique was that the transfer rate parameters and pharmaceutical parameters were ≧0.
Least square curve fitting techniques are inherently sensitive to the initial estimates of kab. For a given initial estimate of kab the fit may converge on solutions at local minima, which may not be the global minimum. In order to minimize potential errors caused by this effect, all the models employed a global search over a wide range in parameter space to find the initial estimates of kab corresponding to lowest fit residuals. To use the most realistic initial estimates for the fitting function, simultaneous solutions were obtained for the control 190 nmoles/g heart and 50 mg/kg SEA0400 heart efflux data, as well as the corresponding blood efflux data.
For the SEA0400 groups, a similar set of simultaneous ODEs was used, with k21 modeled as a function of time (Eq. [3]).
k21total and k2comp are the total transfer rates from compartment 2 to the blood, and from compartment 2 to compartments 3 and 4, respectively. These two parameters were estimated via the modeling technique.

kabs drug absorption rate [1]: 671 h⁻¹
kel drug elimination rate [1]: 1.7 h⁻¹
kabs drug absorption rate [2]: 672 h⁻¹
kel drug elimination rate [2]: 0.51 h⁻¹
kabs drug absorption rate [3]: 680 h⁻¹
kel drug elimination rate [3]: 0.49 h⁻¹
kabs drug absorption rate [4]: 66 h⁻¹
kel drug elimination rate [4]: 0.14 h⁻¹
kabs drug absorption rate [5]: 68 h⁻¹
kel drug elimination rate [5]: 1.6 h⁻¹
kabs drug absorption rate [6]: 149 h⁻¹
kel drug elimination rate [6]: 0.47 h⁻¹
kabs drug absorption rate [7]: 115 h⁻¹
kel drug elimination rate [7]: 0.41 h⁻¹
kabs drug absorption rate [8]: 118 h⁻¹
kel drug elimination rate [8]: 0.17 h⁻¹
Mn^2+ efflux rate following inhibition of the NCX, % of the initial, pre-SEA0400 administration, rate (10 mg/kg SEA0400): 8.2%
Mn^2+ efflux rate following inhibition of the NCX, % of the initial, pre-SEA0400 administration, rate (20 mg/kg SEA0400): 1.8%
Mn^2+ efflux rate following inhibition of the NCX, % of the initial, pre-SEA0400 administration, rate (35 mg/kg SEA0400): 1.6%
Mn^2+ efflux rate following inhibition of the NCX, % of the initial, pre-SEA0400 administration, rate (50 mg/kg SEA0400): 1.0%
kabs drug absorption rate [9]: 85 h⁻¹
kel drug elimination rate [9]: 1.1 h⁻¹
kabs drug absorption rate [10]: 118 h⁻¹
kel drug elimination rate [10]: 0.44 h⁻¹
kabs drug absorption rate [11]: 9.4 h⁻¹
kel drug elimination rate [11]: 0.33 h⁻¹
kabs drug absorption rate [12]: 149 h⁻¹
kel drug elimination rate [12]: 0.06 h⁻¹
share of Mn^2+ efflux that occurs via the NCX (model prediction, highest dose of SEA0400): approximately 99%
SMILES: CCOc1ccc(Oc2ccc(OCc3cc(F)ccc3F)cc2)c(N)c1 [SEA0400]
